We go through four molecules from patent US5104875A, “Combination preparations containing rifampicin and thioacetazon” (priority 1989, dated 1992).

Data set [1] relates to mycobacteria of the avium complex, patient one. The data set is described as follows: MIC alone and in combination. It counts as cell-based. As to conditions: Homo sapiens, single.
The conditions of data set [2]: higher doses; cited from earlier work.
Data set [3] deals with mycobacteria of the avium complex, patient Vo. The data set is described as follows: MIC alone and in combination. The data set is classed as cell-based. As to conditions: Homo sapiens, single.
The subject of data set [4] is mycobacteria of the avium complex, patient Sa. Briefly: MIC alone and in combination. It counts as cell-based. The conditions noted are these: Homo sapiens, single.
Data set [5] deals with M. avium Dan. Briefly: MIC of the individual substances. As to conditions: for MIC: single substance.
Method: (§1) The bacteria were cultivated in a liquid nutrient medium according to Lockemann (cf. "Nachweisverfahren fur Mykobakterien aus Untersuchungsmaterial, III, Nahrbodenrezepte zur Kultur von Tuberkulosebakterien, 1978, Publisher: Deutsches Zentralkomitee zur Bekampfung der Tuberkulose, Poppenhusenstrasse 14c, 2000 Hamburg 60) enriched with 0.5 % albumin and 1 % human serum. In each case 5×10^-3 to 5 ×10^-5 mg, referred to the weight in wet state, of the mycobacteria strains were incubated in 2 ml of the culture liquid at 37° C. with graded concentrations of RMP and Thz. Readings were taken from the culture tubes after 8 to 15 days.
(§2) The MIC is the concentration of the growth inhibitor in μg/ml, at which no multiplication of the seeded cells can be established.
For data set [6], the system named is M. avium Bi. Briefly: MIC of the individual substances. The conditions noted are these: single substance.
Method: as §1, §2
For data set [7], the system named is mycobacteria. As to conditions: administered alone in acceptable doses; cited from earlier work.
The subject of data set [8] is mycobacteria of the avium complex, patient Bi. The data set is described as follows: MIC alone and in combination. The data set is classed as cell-based. The conditions noted are these: Homo sapiens, single.
In data set [9] the test system is mycobacteria of the avium complex, patient Ku. The data set is described as follows: MIC alone and in combination. The data set is classed as cell-based. The conditions noted are these: Homo sapiens, single.
The test system of data set [10] is M.tuberculosis H37Rv. The data set is described as follows: chess-board titration, growth inhibition. The data set is classed as cell-based.
Data set [11] has as its system mycobacteria of the avium complex, patient Wi. Briefly: MIC alone and in combination. The data set is classed as cell-based. As to conditions: Homo sapiens, single.
For data set [12], the system named is M. avium 227. Briefly: MIC of the individual substances.
Method: as §1, §2
Data set [13] deals with mycobacteria of the avium complex, patient Ma. Briefly: MIC alone and in combination. The data set is classed as cell-based. The conditions noted are these: Homo sapiens, single.
Data set [14] concerns mycobacteria of the avium complex, patient Ka-B. Briefly: MIC alone and in combination. It counts as cell-based. As to conditions: Homo sapiens, single.
For data set [15], the system named is mycobacteria of the avium complex, patient Me. The data set is described as follows: MIC alone and in combination. The data set is classed as cell-based. As to conditions: Homo sapiens, single.
The subject of data set [16] is RMP-resistant patient strain M. avium BK. Briefly: chess-board titration, growth inhibition. The data set is classed as cell-based.
The subject of data set [17] is mycobacteria of the avium complex, patient two. The data set is described as follows: MIC alone and in combination. It counts as cell-based. As to conditions: Homo sapiens, single.
Data set [18] deals with M. avium Ro. Briefly: MIC of the individual substances. As to conditions: for MIC: single substance.
Method: as §1, §2
Data set [19] deals with mycobacteria of the MOTT-complex. The data set is described as follows: effect when administered alone. The conditions noted are these: administered alone (cf. Example 2, Table 2 and Table 5).
The mark [20] stands for this setting: Mycobacterium avium, 227, read-out: average inhibiting concentration alone.

Where two headings read alike, the source gives them in different places.

Consider `CC(=O)Nc1ccc(C=NNC(N)=S)cc1` [Thz, thioacetazon], for which the MIC was 16 µg/mL in data set [1]; 32 µg/mL in data set [3]; 32 µg/mL in [4]; greater than 32 µg/mL in [5]; 3 µg/mL in data set [6]; greater than 32 µg/mL in data set [8]. Moreover, the MIC in data set [9] is 32 µg/mL; in data set [11] it was 32 µg/mL; in data set [12] (M. avium 227, single substance) it was 32 µg/mL; in [12] (setting [20]), 32 µg/mL; in [13], greater than 32 µg/mL; in data set [14] it was greater than 32 µg/mL. Further, the MIC in data set [15] is 32 µg/mL; in data set [17] it was 32 µg/mL; in data set [18], greater than 32 µg/mL. Besides, the undesirable side-effects entry in data set [2] is recorded as “can lead to undesirable side-effects in higher doses”. Besides, the resistance entry in data set [5] is reported as “resistant”; in data set [18] it was “completely resistant”. Moreover, the anti-mycobacterial effect result in data set [7] is on record as “only of weak effect”. Besides, the growth inhibition result in [10] (Thioacetazon .05 ug/ml, Rifampicin 0) is recorded as “+++”; in [10] (Thioacetazon .10 ug/ml, Rifampicin 0), “+++”; in [10] (Thioacetazon .15 ug/ml, Rifampicin 0) it was “+++”; in [10] (Thioacetazon .20 ug/ml, Rifampicin 0) it was “+++”; in data set [10] (Thioacetazon .25 ug/ml, Rifampicin 0), “+++”; in [10] (Thioacetazon .30 ug/ml, Rifampicin 0), “+++”. For the same molecule, the growth inhibition result is “+++” in data set [10] (Thioacetazon .35 ug/ml, Rifampicin 0); “+ ++” in data set [10] (Thioacetazon .40 ug/ml, Rifampicin 0); “+++” in data set [10] (Thioacetazon .45 ug/ml, Rifampicin 0); “+++” in data set [10] (Thioacetazon .50 ug/ml, Rifampicin 0); “+++” in [16] (Thioacetazon 0.8 ug/ml, Rifampicin 0); “+++” in data set [16] (Thioacetazon 1.6 ug/ml, Rifampicin 0). The growth inhibition entry in data set [16] (Thioacetazon 2.4 ug/ml, Rifampicin 0) was “++”; in data set [16] (Thioacetazon 3.2 ug/ml, Rifampicin 0), “++”; in data set [16] (Thioacetazon 4 ug/ml, Rifampicin 0), “++”; in [16] (Thioacetazon 4.8 ug/ml, Rifampicin 0), “++”; in [16] (Thioacetazon 5.6 ug/ml, Rifampicin 0), “+”; in [16] (Thioacetazon 6.4 ug/ml, Rifampicin 0), “+”. Also, the growth inhibition entry is given as “+” in data set [16] (Thioacetazon 7.2 ug/ml, Rifampicin 0) and “+” in data set [16] (Thioacetazon 8 ug/ml, Rifampicin 0).

On to `CC[C@@H](CO)NCCN[C@@H](CC)CO` [EMB, ethambutol], for which the MIC in data set [1] is greater than 32 µg/mL; in data set [3], 4 to 8 µg/mL; in data set [4], greater than 32 µg/mL; in data set [8] it was 4 µg/mL; in data set [9], greater than 32 µg/mL; in [11] it was greater than 32 µg/mL. Further, the MIC in [13] was 32 µg/mL; in [14], greater than 32 µg/mL; in data set [15] it was 8 µg/mL; in data set [17] it was 16 to 32 µg/mL.

With `CO[C@H]1/C=C/O[C@@]2(C)Oc3c(C)c(O)c4c(O)c(c(/C=N/N5CCN(C)CC5)c(O)c4c3C2=O)NC(=O)/C(C)=C\C=C\[C@H](C)[C@H](O)[C@@H](C)[C@@H](O)[C@@H](C)[C@H](OC(C)=O)[C@@H]1C` [RMP, rifampicin], in [19], the “effect against the mycobacteria of the MOTT-complex” value is given as “no effect or only a slight effect”. The MIC in data set [1] is greater than 32 µg/mL; in data set [3] it was 16 µg/mL; in data set [4] it was 8 µg/mL; in data set [5], 16 µg/mL; in [6], 3 µg/mL; in data set [8], 4 µg/mL. Besides, the MIC in data set [9] was 32 µg/mL; in data set [11], greater than 32 µg/mL; in [12] (M. avium 227, single substance) it was 8 µg/mL; in [12] (setting [20]), 8 µg/mL; in data set [13], greater than 32 µg/mL; in data set [14], greater than 32 µg/mL. In addition, the values for the MIC in data set [15], in [17] and in data set [18] were 16 µg/mL, 32 µg/mL and greater than 32 µg/mL, respectively. Also, the growth inhibition entry was “+++” in data set [10] (Rifampicin .006 ug/ml, Thioacetazon 0); “+++” in [10] (Rifampicin .012 ug/ml, Thioacetazon 0); “+++” in data set [10] (Rifampicin .018 ug/ml, Thioacetazon 0); “+++” in data set [10] (Rifampicin .024 ug/ml, Thioacetazon 0); “++” in data set [10] (Rifampicin .030 ug/ml, Thioacetazon 0); “+” in data set [10] (Rifampicin .036 ug/ml, Thioacetazon 0). The growth inhibition result in data set [10] (Rifampicin .042 ug/ml, Thioacetazon 0) is “+”; in data set [10] (Rifampicin .048 ug/ml, Thioacetazon 0), “+”; in data set [10] (Rifampicin .054 ug/ml, Thioacetazon 0) it was “-”; in data set [10] (Rifampicin .06 ug/ml, Thioacetazon 0), “-”; in data set [16] (Rifampicin 0.8 ug/ml, Thioacetazon 0.000), “+++”; in [16] (Rifampicin 1.6 ug/ml, Thioacetazon 0.000), “+++”. The growth inhibition result is “++” in data set [16] (Rifampicin 2.4 ug/ml, Thioacetazon 0.000); “++” in data set [16] (Rifampicin 3.2 ug/ml, Thioacetazon 0.000); “-” in data set [16] (Rifampicin 4 ug/ml, Thioacetazon 0.000); “-” in data set [16] (Rifampicin 4.8 ug/ml, Thioacetazon 0.000); “-” in data set [16] (Rifampicin 5.4 ug/ml, Thioacetazon 0.000); “-” in data set [16] (Rifampicin 6.4 ug/ml, Thioacetazon 0.000). Further, the growth inhibition result was “-” in data set [16] (Rifampicin 7.2 ug/ml, Thioacetazon 0.000) and “-” in data set [16] (Rifampicin 8 ug/ml, Thioacetazon 0.000). Besides, the resistance result in data set [18] is given as “completely resistant”.

As to `NNC(=O)c1ccncc1` [INH, isonicotinic acid hydrazide], the MIC in data set [1] is 4 µg/mL; in [3], 8 µg/mL; in data set [4] it was 32 µg/mL; in data set [8], greater than 32 µg/mL; in data set [9], 4 µg/mL; in [11], 16 µg/mL. For the same molecule, the MIC in data set [13] was greater than 32 µg/mL; in data set [14] it was 32 µg/mL; in [15], 16 µg/mL; in data set [17], 16 µg/mL.
